System: HCV 1b-377-neo replicon cells
Experiment: HCV replicon assay, HCV 1b-377-neo replicon cells (1b FRET)
Assay type: cell-based, Hepatitis C virus genotype 1b
Conditions: Hepatitis C virus, HCV 1b-377-neo replicon cells; HCV 1b genotype; read-out: EC50 range against HCV 1b (Table 2, Range)
Procedure, shortened: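 Compounds were tested in genotype 1b subgenomic replicon cells carrying a neomycin marker, alongside a matched replicon line with an NS5A Y2065H substitution that confers resistance to a reference NS5A inhibitor.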

SMILES | EC50 [nM]
CCN(CC)[C@@H](C(=O)N1CCC[C@H]1c1ncc(-c2ccc(-c3ccc(-c4cnc([C@@H]5CCCN5C(=O)[C@H](Cc5cccnc5)NC(=O)OC)[nH]4)cc3)cc2)[nH]1)c1ccccc1 [cj-84, methyl ((1S)-2-((2S)-2-(5-(4′-(2-((2S)-1-((2R)-2-(diethylamino)-2-phenylacetyl)-2-pyrrolidinyl)-1H-imidazol-5-yl)-4-biphenylyl)-1H-imidazol-2-yl)-1-pyrrolidinyl)-2-oxo-1-(3-pyridinylmethyl)ethyl)carbamate] | 0.001 to 0.999
COC(=O)N[C@@H](C)C(=O)N1CCC[C@H]1c1ncc(-c2ccc(-c3ccc(-c4cnc([C@@H]5CCCN5C(=O)[C@H](Cc5cccnc5)NC(=O)OC)[nH]4)cc3)cc2)[nH]1 [cj-85, methyl ((1S)-2-((2S)-2-(5-(4′-(2-((2S)-1-(N-(methoxycarbonyl)-L-alanyl)-2-pyrrolidinyl)-1H-imidazol-5-yl)-4-biphenylyl)-1H-imidazol-2-yl)-1-pyrrolidinyl)-2-oxo-1-(3-pyridinylmethyl)ethyl)carbamate] | 0.001 to 0.999
COC(=O)N[C@@H]1CC[C@H](C(=O)N2CCC[C@H]2c2ncc(-c3ccc(-c4ccc(-c5cnc([C@@H]6CCCN6C(=O)[C@@H](NC(=O)OC)[C@@H](C)OC)[nH]5)cc4)cc3)[nH]2)C1 [cj-86, methyl ((1R,3S)-3-(((2S)-2-(5-(4′-(2-((2S)-1-((2S)-3-methoxy-2-((methoxycarbonyl)amino)butanoyl)-2-pyrrolidinyl)-1H-imidazol-5-yl)-4-biphenylyl)-1H-imidazol-2-yl)-1-pyrrolidinyl)carbonyl)cyclopentyl)carbamate] | 0.001 to 0.999
COC(=O)N[C@@H](Cc1ccncc1)C(=O)N1CCC[C@H]1c1ncc(-c2ccc(-c3ccc(-c4cnc([C@@H]5CCCN5C(=O)[C@@H](NC(=O)OC)[C@@H](C)OC)[nH]4)cc3)cc2)[nH]1 [cj-87, methyl ((1S)-2-((2S)-2-(5-(4′-(2-((2S)-1-((2S,3R)-3-methoxy-2-((methoxycarbonyl)amino)butanoyl)-2-pyrrolidinyl)-1H-imidazol-5-yl)-4-biphenylyl)-1H-imidazol-2-yl)-1-pyrrolidinyl)-2-oxo-1-(4-pyridinylmethyl)ethyl)carbamate] | 0.001 to 0.999
COC(=O)N[C@@H](Cc1ccncc1)C(=O)N1CCC[C@H]1c1ncc(-c2ccc(-c3ccc(-c4cnc([C@@H]5CCCN5C(=O)[C@@H](NC(=O)OC)C(C)C)[nH]4)cc3)cc2)[nH]1 [cj-88, methyl ((1S)-2-((2S)-2-(5-(4′-(2-((2S)-1-((2S)-2-((methoxycarbonyl)amino)-3-methylbutanoyl)-2-pyrrolidinyl)-1H-imidazol-5-yl)-4-biphenylyl)-1H-imidazol-2-yl)-1-pyrrolidinyl)-2-oxo-1-(4-pyridinylmethyl)ethyl)carbamate] | 0.001 to 0.999
CCN(CC)[C@@H](C(=O)N1CCC[C@H]1c1ncc(-c2ccc(-c3ccc(-c4cnc([C@@H]5CCCN5C(=O)[C@H](Cc5ccncc5)NC(=O)OC)[nH]4)cc3)cc2)[nH]1)c1ccccc1 [cj-89, methyl ((1S)-2-((2S)-2-(5-(4′-(2-((2S)-1-((2R)-2-(diethylamino)-2-phenylacetyl)-2-pyrrolidinyl)-1H-imidazol-5-yl)-4-biphenylyl)-1H-imidazol-2-yl)-1-pyrrolidinyl)-2-oxo-1-(4-pyridinylmethyl)ethyl)carbamate] | 0.001 to 0.999
COC(=O)N[C@@H](C)C(=O)N1CCC[C@H]1c1ncc(-c2ccc(-c3ccc(-c4cnc([C@@H]5CCCN5C(=O)[C@H](Cc5ccncc5)NC(=O)OC)[nH]4)cc3)cc2)[nH]1 [cj-90, methyl ((1S)-2-((2S)-2-(5-(4′-(2-((2S)-1-(N-(methoxycarbonyl)-L-alanyl)-2-pyrrolidinyl)-1H-imidazol-5-yl)-4-biphenylyl)-1H-imidazol-2-yl)-1-pyrrolidinyl)-2-oxo-1-(4-pyridinylmethyl)ethyl)carbamate] | 0.001 to 0.999
COC(=O)N[C@@H](Cc1ccc(OP(=O)(O)OC)cc1)C(=O)N1CCC[C@H]1c1ncc(-c2ccc(-c3ccc(-c4cnc([C@@H]5CCCN5C(=O)[C@@H](NC(=O)OC)C(C)C)[nH]4)cc3)cc2)[nH]1 [cj-91, methyl ((1S)-1-(((2S)-2-(5-(4′-(2-((2S)-1-(O-(hydroxy(methoxy)phosphoryl)-N-(methoxycarbonyl)-L-tyrosyl)-2-pyrrolidinyl)-1H-imidazol-5-yl)-4-biphenylyl)-1H-imidazol-2-yl)-1-pyrrolidinyl)carbonyl)-2-methylpropyl)carbamate] | 0.001 to 0.999
COC(=O)N[C@@H](Cc1ccc(OP(=O)(O)OC)cc1)C(=O)N1CCC[C@H]1c1ncc(-c2ccc(-c3ccc(-c4cnc([C@@H]5CCCN5C(=O)[C@@H](NC(=O)OC)[C@@H](C)OC)[nH]4)cc3)cc2)[nH]1 [cj-92, methyl ((1S,2R)-1-(((2S)-2-(5-(4′-(2-((2S)-1-(O-(hydroxy(methoxy)phosphoryl)-N-(methoxycarbonyl)-L-tyrosyl)-2-pyrrolidinyl)-1H-imidazol-5-yl)-4-biphenylyl)-1H-imidazol-2-yl)-1-pyrrolidinyl)carbonyl)-2-methoxypropyl)carbamate] | 1 to 99
COC(=O)N[C@H](C(=O)N1CCC[C@H]1c1ncc(-c2ccc(-c3ccc(-c4cnc([C@@H]5CCCN5C(=O)[C@H]5CCCC[C@H]5NC(=O)OC)[nH]4)cc3)cc2)[nH]1)C(C)C [cj-93, methyl ((1S)-1-(((2S)-2-(5-(4′-(2-((2S)-1-(((1S,2R)-2-((methoxycarbonyl)amino)cyclohexyl)carbonyl)-2-pyrrolidinyl)-1H-imidazol-5-yl)-4-biphenylyl)-1H-imidazol-2-yl)-1-pyrrolidinyl)carbonyl)-2-methylpropyl)carbamate] | 0.001 to 0.999
CCN(CC)[C@@H](C(=O)N1CCC[C@H]1c1ncc(-c2ccc(-c3ccc(-c4cnc([C@@H]5CCCN5C(=O)[C@H]5CCCC[C@H]5NC(=O)OC)[nH]4)cc3)cc2)[nH]1)c1ccccc1 [cj-94, methyl ((1R,2S)-2-(((2S)-2-(5-(4′-(2-((2S)-1-((2R)-2-(diethylamino)-2-phenylacetyl)-2-pyrrolidinyl)-1H-imidazol-5-yl)-4-biphenylyl)-1H-imidazol-2-yl)-1-pyrrolidinyl)carbonyl)cyclohexyl)carbamate] | 0.001 to 0.999
COC(=O)N[C@@H](C(=O)N1CCC[C@H]1c1ncc(-c2ccc(-c3ccc(-c4cnc([C@@H]5CCCN5C(=O)[C@H]5CCCC[C@H]5NC(=O)OC)[nH]4)cc3)cc2)[nH]1)c1ccccc1 [cj-95, methyl ((1R)-2-((2S)-2-(5-(4′-(2-((2S)-1-(((1S,2R)-2-((methoxycarbonyl)amino)cyclohexyl)carbonyl)-2-pyrrolidinyl)-1H-imidazol-5-yl)-4-biphenylyl)-1H-imidazol-2-yl)-1-pyrrolidinyl)-2-oxo-1-phenylethyl)carbamate] | 0.001 to 0.999
COC(=O)N[C@@H](C)C(=O)N1CCC[C@H]1c1ncc(-c2ccc(-c3ccc(-c4cnc([C@@H]5CCCN5C(=O)[C@H]5CCCC[C@H]5NC(=O)OC)[nH]4)cc3)cc2)[nH]1 [cj-96, methyl ((1R,2S)-2-(((2S)-2-(5-(4′-(2-((2S)-1-(N-(methoxycarbonyl)-L-alanyl)-2-pyrrolidinyl)-1H-imidazol-5-yl)-4-biphenylyl)-1H-imidazol-2-yl)-1-pyrrolidinyl)carbonyl)cyclohexyl)carbamate] | 0.001 to 0.999

From patent publication US8574563B2 (Bristol-Myers Squibb Company, priority 2006, dated 2013)
